The target in test [1] is Glucagon receptor (Rattus norvegicus) (UniProt P30082). The test can be described thus: Percent stimulation of cAMP production over basal. The format is functional. Further details: concentration or dose not given beside the values. In general terms: cAMP levels reflect the balance of adenylyl cyclase and phosphodiesterase activity.
The target is the same in test [2]. The test can be described thus: Relative binding potency expressed as receptor binding IC50 for glucagon by receptor binding IC50 for compound.

Chain of Glucagon receptor (Rattus norvegicus) (P30082 whole entry): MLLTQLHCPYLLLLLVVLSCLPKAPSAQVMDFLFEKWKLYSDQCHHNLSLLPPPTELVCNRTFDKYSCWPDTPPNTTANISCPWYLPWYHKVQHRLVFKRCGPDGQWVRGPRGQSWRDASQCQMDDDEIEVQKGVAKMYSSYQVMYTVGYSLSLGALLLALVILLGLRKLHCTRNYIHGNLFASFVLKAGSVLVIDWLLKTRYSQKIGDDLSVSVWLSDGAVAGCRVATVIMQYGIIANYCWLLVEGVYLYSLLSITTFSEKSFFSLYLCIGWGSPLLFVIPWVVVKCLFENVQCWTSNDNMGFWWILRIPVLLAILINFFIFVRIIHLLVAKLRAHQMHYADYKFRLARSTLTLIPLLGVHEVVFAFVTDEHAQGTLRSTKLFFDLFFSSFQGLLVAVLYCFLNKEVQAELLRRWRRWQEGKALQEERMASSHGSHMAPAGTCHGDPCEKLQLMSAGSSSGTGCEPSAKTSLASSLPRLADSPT

For `CSCC[C@@H](NC(=O)[C@@H](CC(C)C)NC(=O)[C@@H](Cc1c[nH]c2ccccc12)NC(=O)[C@@H](CCC(N)=O)NC(=O)[C@H](NC(=O)[C@@H](Cc1ccccc1)NC(=O)[C@@H](CC(=O)O)NC(=O)[C@@H](CCC(N)=O)NC(=O)[C@@H](C)NC(=O)[C@@H](CCCN=C(N)N)NC(=O)[C@@H](CCCN=C(N)N)NC(=O)[C@@H](CO)NC(=O)[C@@H](CC(=O)O)NC(=O)[C@@H](CC(C)C)NC(=O)[C@@H](Cc1ccc(O)cc1)NC(=O)[C@@H](CCCCN)NC(=O)[C@@H](CO)NC(=O)[C@@H](Cc1ccc(O)cc1)NC(=O)[C@@H](CCC(=O)O)NC(=O)[C@@H](CO)NC(=O)[C@H](NC(=O)[C@H](NC(=O)CNC(=O)[C@@H](CCC(N)=O)NC(=O)[C@H](N)CO)[C@H](C)O)[C@H](C)O)C(C)C)C(=O)N[C@H](CC(N)=O)C(=O)N[C@@H](C(=O)O)[C@H](C)O` (stereo in doubt; 13), the figures for the Activity in test [1] and in test [2] were 0% and under 0.1%, respectively.
`CSCC[C@@H](NC(=O)[C@@H](CC(C)C)NC(=O)[C@@H](Cc1c[nH]c2ccccc12)NC(=O)[C@@H](CCC(N)=O)NC(=O)[C@H](NC(=O)[C@@H](Cc1ccccc1)NC(=O)[C@@H](CC(=O)O)NC(=O)[C@@H](CCC(N)=O)NC(=O)[C@@H](C)NC(=O)[C@@H](CCCN=C(N)N)NC(=O)[C@@H](CCCN=C(N)N)NC(=O)[C@@H](CO)NC(=O)[C@@H](CC(=O)O)NC(=O)[C@@H](CC(C)C)NC(=O)[C@@H](Cc1ccc(O)cc1)NC(=O)[C@@H](CCCCN)NC(=O)[C@@H](CO)NC(=O)[C@@H](Cc1ccc(O)cc1)NC(=O)[C@@H](CCC(=O)O)NC(=O)[C@@H](CO)NC(=O)[C@H](NC(=O)[C@@H](C)NC(=O)[C@H](NC(=O)CNC(=O)[C@@H](CCC(N)=O)NC(=O)[C@H](N)CO)[C@H](C)O)[C@H](C)O)C(C)C)C(=O)N[C@H](CC(N)=O)C(=O)N[C@@H](C(N)=O)[C@H](C)O`: the Activity in test [1] was 0%; in test [2] it was 1.2%.
With `CSCC[C@@H](NC(=O)[C@@H](CC(C)C)NC(=O)[C@@H](Cc1c[nH]c2ccccc12)NC(=O)[C@@H](CCC(N)=O)NC(=O)[C@H](NC(=O)[C@@H](Cc1ccccc1)NC(=O)[C@@H](CC(=O)O)NC(=O)[C@@H](CCC(N)=O)NC(=O)[C@@H](C)NC(=O)[C@@H](CCCN=C(N)N)NC(=O)[C@@H](CCCN=C(N)N)NC(=O)[C@@H](CO)NC(=O)[C@@H](CC(=O)O)NC(=O)[C@@H](CC(C)C)NC(=O)[C@@H](Cc1ccc(O)cc1)NC(=O)[C@@H](CCCCN)NC(=O)[C@@H](CO)NC(=O)[C@@H](Cc1ccc(O)cc1)NC(=O)[C@@H](CC(=O)O)NC(=O)[C@@H](CO)NC(=O)[C@H](NC(=O)[C@H](NC(=O)CNC(=O)[C@@H](CCC(N)=O)NC(=O)[C@H](N)CO)[C@H](C)O)[C@H](C)O)C(C)C)C(=O)N[C@H](CC(N)=O)C(=O)N[C@@H](C(=O)O)[C@H](C)O`, the Activity in test [1] was 0%; in test [2] it was 1%.
The corresponding values for `CSCC[C@@H](NC(=O)[C@@H](CC(C)C)NC(=O)[C@@H](Cc1c[nH]c2ccccc12)NC(=O)[C@@H](CCC(N)=O)NC(=O)[C@H](NC(=O)[C@@H](Cc1ccccc1)NC(=O)[C@@H](CC(=O)O)NC(=O)[C@@H](CCC(N)=O)NC(=O)[C@@H](C)NC(=O)[C@@H](CCCN=C(N)N)NC(=O)[C@@H](CCCN=C(N)N)NC(=O)[C@@H](CO)NC(=O)[C@@H](CC(=O)O)NC(=O)[C@@H](CC(C)C)NC(=O)[C@@H](Cc1ccc(O)cc1)NC(=O)[C@@H](CCCCN)NC(=O)[C@@H](CO)NC(=O)[C@@H](Cc1ccc(O)cc1)NC(=O)[C@@H](CCC(=O)O)NC(=O)[C@@H](CO)NC(=O)[C@H](NC(=O)[C@H](NC(=O)CNC(=O)[C@@H](CCC(N)=O)NC(=O)[C@H](N)CO)[C@H](C)O)[C@H](C)O)C(C)C)C(=O)N[C@H](CC(N)=O)C(=O)N[C@@H](C(=O)O)[C@H](C)O` (stereo in doubt; 12) are 0% and under 0.1%.
The corresponding values for `CSCC[C@@H](NC(=O)[C@@H](CC(C)C)NC(=O)[C@@H](Cc1c[nH]c2ccccc12)NC(=O)[C@@H](CCC(N)=O)NC(=O)[C@H](NC(=O)[C@@H](Cc1ccccc1)NC(=O)[C@@H](CC(=O)O)NC(=O)[C@@H](CCC(N)=O)NC(=O)[C@@H](C)NC(=O)[C@@H](CCCN=C(N)N)NC(=O)[C@@H](CCCN=C(N)N)NC(=O)[C@@H](CO)NC(=O)[C@@H](CC(=O)O)NC(=O)[C@@H](CC(C)C)NC(=O)[C@@H](Cc1ccc(O)cc1)NC(=O)[C@@H](CCCCN)NC(=O)[C@@H](CO)NC(=O)[C@@H](Cc1ccc(O)cc1)NC(=O)[C@@H](CCC(=O)O)NC(=O)[C@@H](CO)NC(=O)[C@H](NC(=O)[C@@H](CC(=O)O)NC(=O)[C@H](NC(=O)CNC(=O)[C@@H](CCC(N)=O)NC(=O)[C@H](N)CO)[C@H](C)O)[C@H](C)O)C(C)C)C(=O)N[C@H](CC(N)=O)C(=O)N[C@@H](C(N)=O)[C@H](C)O` are 0% and under 0.1%.
Turning to `CSCC[C@@H](NC(=O)[C@@H](CC(C)C)NC(=O)[C@@H](Cc1c[nH]c2ccccc12)NC(=O)[C@@H](CCC(N)=O)NC(=O)[C@H](NC(=O)[C@@H](Cc1ccccc1)NC(=O)[C@@H](CC(=O)O)NC(=O)[C@@H](CCC(N)=O)NC(=O)[C@@H](C)NC(=O)[C@@H](CCCN=C(N)N)NC(=O)[C@@H](CCCN=C(N)N)NC(=O)[C@@H](CO)NC(=O)[C@@H](CC(=O)O)NC(=O)[C@@H](CC(C)C)NC(=O)[C@@H](Cc1ccc(O)cc1)NC(=O)[C@@H](CCCCN)NC(=O)[C@@H](CO)NC(=O)[C@@H](Cc1ccc(O)cc1)NC(=O)[C@@H](CCC(=O)O)NC(=O)[C@@H](CO)NC(=O)[C@H](NC(=O)[C@@H](Cc1ccc(O)cc1)NC(=O)[C@H](NC(=O)CNC(=O)[C@@H](CCC(N)=O)NC(=O)[C@H](N)CO)[C@H](C)O)[C@H](C)O)C(C)C)C(=O)N[C@H](CC(N)=O)C(=O)N[C@@H](C(N)=O)[C@H](C)O`, the values for the Activity in test [1] and in test [2] were 0% and 3.8%, respectively.
Take `CSCC[C@@H](NC(=O)[C@@H](CC(C)C)NC(=O)[C@@H](Cc1c[nH]c2ccccc12)NC(=O)[C@@H](CCC(N)=O)NC(=O)[C@H](NC(=O)[C@@H](Cc1ccccc1)NC(=O)[C@@H](CC(=O)O)NC(=O)[C@@H](CCC(N)=O)NC(=O)[C@@H](C)NC(=O)[C@@H](CCCN=C(N)N)NC(=O)[C@@H](CCCN=C(N)N)NC(=O)[C@@H](CO)NC(=O)[C@@H](CC(=O)O)NC(=O)[C@@H](CC(C)C)NC(=O)[C@@H](Cc1ccc(O)cc1)NC(=O)[C@@H](CCCCN)NC(=O)[C@@H](CO)NC(=O)[C@@H](Cc1ccc(O)cc1)NC(=O)[C@@H](CCC(=O)O)NC(=O)[C@@H](CO)NC(=O)[C@H](NC(=O)[C@H](NC(=O)CNC(=O)[C@@H](CCC(N)=O)NC(=O)[C@@H](CO)NC(=O)[C@H](N)Cc1c[nH]cn1)[C@H](C)O)[C@H](C)O)C(C)C)C(=O)N[C@H](CC(N)=O)C(=O)N[C@@H](C(N)=O)[C@H](C)O`: the Activity in test [1] stood at 0%; in test [2] it was 1.3%.
The corresponding values for `CSCC[C@@H](NC(=O)[C@@H](CC(C)C)NC(=O)[C@@H](Cc1c[nH]c2ccccc12)NC(=O)[C@@H](CCC(N)=O)NC(=O)[C@H](NC(=O)[C@@H](Cc1ccccc1)NC(=O)[C@@H](CC(=O)O)NC(=O)[C@@H](CCC(N)=O)NC(=O)[C@@H](C)NC(=O)[C@@H](CCCN=C(N)N)NC(=O)[C@@H](CCCN=C(N)N)NC(=O)[C@@H](CO)NC(=O)[C@@H](CC(=O)O)NC(=O)[C@@H](CC(C)C)NC(=O)[C@@H](Cc1ccc(O)cc1)NC(=O)[C@@H](CCCCN)NC(=O)[C@@H](CO)NC(=O)[C@@H](Cc1ccc(O)cc1)NC(=O)[C@@H](CC(=O)O)NC(=O)[C@@H](CO)NC(=O)[C@H](NC(=O)[C@H](NC(=O)CNC(=O)[C@@H](CCC(N)=O)NC(=O)[C@H](N)CO)[C@H](C)O)[C@H](C)O)C(C)C)C(=O)N[C@H](CC(N)=O)C(=O)N[C@@H](C(N)=O)[C@H](C)O` are 0% and 1.2%.
Regarding `CSCC[C@@H](NC(=O)[C@@H](CC(C)C)NC(=O)[C@@H](Cc1c[nH]c2ccccc12)NC(=O)[C@@H](CCC(N)=O)NC(=O)[C@H](NC(=O)[C@@H](Cc1ccccc1)NC(=O)[C@@H](CC(=O)O)NC(=O)[C@@H](CCC(N)=O)NC(=O)[C@@H](C)NC(=O)[C@@H](CCCN=C(N)N)NC(=O)[C@@H](CCCN=C(N)N)NC(=O)[C@@H](CO)NC(=O)[C@@H](CC(=O)O)NC(=O)[C@@H](CC(C)C)NC(=O)[C@@H](Cc1ccc(O)cc1)NC(=O)[C@@H](CCCCN)NC(=O)[C@@H](CO)NC(=O)[C@@H](Cc1ccc(O)cc1)NC(=O)[C@@H](CCC(=O)O)NC(=O)[C@@H](CO)NC(=O)[C@H](NC(=O)[C@@H](Cc1ccccc1)NC(=O)[C@H](NC(=O)[C@@H](CCC(N)=O)NC(=O)[C@H](N)CO)[C@H](C)O)[C@H](C)O)C(C)C)C(=O)N[C@H](CC(N)=O)C(=O)N[C@@H](C(N)=O)[C@H](C)O`, the results for the Activity in test [1] and in test [2] were 6% and 3%, respectively.
In the case of `CCCC[C@H](NC(=O)[C@H](NC(=O)CNC(=O)[C@@H](CCC(N)=O)NC(=O)[C@H](N)CO)[C@H](C)O)C(=O)N[C@@H](C(=O)N[C@H](CO)C(=O)N[C@H](CCC(=O)O)C(=O)N[C@H](Cc1ccc(O)cc1)C(=O)N[C@H](CO)C(=O)N[C@H](CCCCN)C(=O)N[C@H](Cc1ccc(O)cc1)C(=O)N[C@H](CC(C)C)C(=O)N[C@H](CC(=O)O)C(=O)N[C@H](CO)C(=O)N[C@H](CCCN=C(N)N)C(=O)N[C@H](CCCN=C(N)N)C(=O)N[C@H](C)C(=O)N[C@H](CCC(N)=O)C(=O)N[C@H](CC(=O)O)C(=O)N[C@H](Cc1ccccc1)C(=O)N[C@@H](C(=O)N[C@H](CCC(N)=O)C(=O)N[C@H](Cc1c[nH]c2ccccc12)C(=O)N[C@H](CC(C)C)C(=O)N[C@H](CCSC)C(=O)N[C@H](CC(N)=O)C(=O)N[C@@H](C(N)=O)[C@H](C)O)C(C)C)[C@H](C)O`, the Activity in test [1] is 12%; in test [2], 3.1%.
The corresponding values for `CSCC[C@@H](NC(=O)[C@@H](CC(C)C)NC(=O)[C@@H](Cc1c[nH]c2ccccc12)NC(=O)[C@@H](CCC(N)=O)NC(=O)[C@H](NC(=O)[C@@H](Cc1ccccc1)NC(=O)[C@@H](CC(=O)O)NC(=O)[C@@H](CCC(N)=O)NC(=O)[C@@H](C)NC(=O)[C@@H](CCCN=C(N)N)NC(=O)[C@@H](CCCN=C(N)N)NC(=O)[C@@H](CO)NC(=O)[C@@H](CC(=O)O)NC(=O)[C@@H](CC(C)C)NC(=O)[C@@H](Cc1ccc(O)cc1)NC(=O)[C@@H](CCCCN)NC(=O)[C@@H](CO)NC(=O)[C@@H](Cc1ccc(O)cc1)NC(=O)[C@@H](CCC(=O)O)NC(=O)[C@@H](CO)NC(=O)[C@H](NC(=O)[C@H](NC(=O)CNC(=O)[C@@H](CCC(N)=O)NC(=O)[C@H](N)CO)[C@H](C)O)[C@H](C)O)C(C)C)C(=O)N[C@H](CC(N)=O)C(=O)N[C@@H](C(N)=O)[C@H](C)O` are 0% and 3.1%.

(Values after ChEMBL document CHEMBL1130110 (J Med Chem, 1997).)
